{"source": "patent US9655982B2", "about": "“Formation and uses of europium complexes” (Wayne State University, priority 2010, dated 2017)", "experiment": "Cyclic voltammetry: anodic peak potentials of aqueous Eu(II) cryptates vs ferrocene/ferrocenium (oxidative stability)", "type": "physicochemical", "conditions": "for Increase in oxidative stability of Eu(II) compared to cryptand 3: difference in anodic peak potential, Eu(II) complex of the cryptand; for Anodic peak potentials (Epa) with respect to ferrocene/ferrocenium (Fc/Fc+): aqueous MOPS 0.01 M pH 7.5, Et4NClO4 0.05 M, Ar, ambient temperature, scan rate 150 mV/s, mean ± standard error", "excerpt": "To synthesize the diverse set of cryptands 2 and 4-6, a three-step procedure was devised that involved common intermediates 7, 9, and 11 (Scheme 1). Briefly, the synthesis involved the conversion of the appropriate ethylenediols or catechols to the corresponding ditosylates (7, 9, and 11) followed by ring closure with 1,4,10,13-tetraoxa-7,16-diazacyclooctadecane, 2,2′-(ethylenedioxy)bis(ethylamine) or 1,4,10,13-tetrathia-7,16-diazacyclooctadecane.\nTo synthesize the diverse set of cryptands 1-6, a three-step procedure was devised that involved common intermediates 7, 9, and 11 (Scheme 1). Briefly, the synthesis involved the conversion of the appropriate ethylenediols or catechols to the corresponding ditosylates (7, 9, and 11) followed by ring closure with 1,4,10,13-tetraoxa-7,16-diazacyclooctadecane, 2,2′-(ethylenedioxy)bis(ethylamine), or 1,4,10,13-tetrathia-7,16-diazacyclooctadecane. […] The resulting solution was placed in a standard three-electrode cell (glassy-carbon working electrode, Pt-wire auxiliary electrode, and Ag/AgCl (1.0 M KCl) reference electrode). The potential at the carbon electrode was held at −0.8 V (vs Ag/AgCl) while stirring to produce Eu^II in situ for metalation.\n^1H NMR spectra were obtained using a Varian Unity 300 (300 MHz) spectrometer and a Mercury 400 (400 MHz) spectrometer, ^13C NMR spectra were obtained using a Varian Unity 300 (75 MHz) spectrometer and a Mercury 400 (101 MHz) spectrometer. ^19F NMR spectra were obtained using Varian Unity 300 (282 MHz) spectrometer. […] NMR data are assumed to be first order, and the apparent multiplicity is reported as “s”=singlet, “d”=doublet, “dd”=doublet of doublets, “t”=triplet, “td”=triplet of doublets, “q”=quartet, “m”=multiplet, or “brs”=broad singlet. Italicized elements are those that are responsible for the shifts. High-resolution electrospray ionization mass spectra (HRESIMS) were obtained on an electrospray time-of-flight high-resolution Waters Micromass LCT Premier XE mass spectrometer. Cyclic voltammetric analyses were performed using a WaveNow USB potentiostat (Pine Research Instrumentation). A standard three-electrode cell was used with a glassy-carbon working electrode, a Pt-wire auxiliary electrode, and a Ag/AgCl reference electrode (1.0 M KCl). All electrochemical experiments were performed under an Ar atmosphere at ambient temperature with Et4NClO4 (0.05 M) as the supporting electrolyte, an aqueous solution of 3-(N-morpholino)propanesulfonic acid (MOPS, 0.01 M, pH 7.5) as the solvent, and the ferrocene/ferrocinium (Fc/Fc+) redox couple as an internal standard. From the initial potential of the analysis (−1.5 V), the voltage was ramped to 0.75 V and back to −1.5 V at a scan rate of 150 mV/s. […] After each measurement, ferrocene (6.7 mM in acetonitrile) was added to the sample (0.13 mM ferrocene after addition) and the measurement was repeated to enable referencing to Fc/Fc+.\nTo an aqueous solution of 3-(N-morpholino)propanesulfonic acid (MOPS) (0.01 M, pH 7.5), Et4NClO4 (0.05 M), and Eu(NO3)3.5H2O (1.1 mM, 1 equiv) was added a solution of the desired cryptand (12 mM, 1.2 equiv) in acetonitrile, and the resulting mixture was sparged with Ar for 5 minutes. The potential of the resulting solution was held at −0.8 V (30 minutes per 0.01 mmol of Eu(NO3)3.5H2O) while stirring under constant sparging with Ar. Immediately after holding the potential at −0.8 V, cyclic voltammograms were obtained in the potential range of −1.5 to 0.75 V at a scan rate of 150 mV/s. After acquiring the voltammogram, ferrocene (6.7 mM in acetonitrile, 0.1 equiv) was added, and another cyclic voltammogram was obtained. These cyclic voltammetric experiments were repeated 3-6 times for each ligand.", "note": "“And” between values parts separate entries of the source, which are not always exact repeats. Equal values may be shown once. “Also recorded” adds a separate entry of the source.", "data": [{"compound": "c1ccc2c(c1)OCCN1CCOCCOCCN(CCO2)CCOc2ccccc2OCC1", "note": "[cryptand 5, 5,6,14,15-Dibenzo-4,7,13,16,21,24-hexaoxa-1,10-diazabicyclo[8.8.8]hexacosane]", "values": [{"measurement": "Anodic peak potential compared to mono-phenyl substituted cryptand 3 (in words)", "setting": "p=0.76", "result": "no significant difference"}]}, {"compound": "CC1(C)OCCN2CCOCCOCCN(CCOC1(C)C)CCOC(C)(C)C(C)(C)OCC2", "note": "[cryptand 2, 5,5,6,6,14,14,15,15-Octamethyl-4,7,13,16,21,24-hexaoxa-1,10-diazabicyclo[8.8.8]hexacosane]", "values": [{"measurement": "Oxidative stability compared to unmodified cryptand 1 (in words)", "setting": "cyclic voltammetric data of Eu-containing solutions", "result": "increased oxidative stability"}]}, {"compound": "c1ccc2c(c1)OCCN1CCSCCSCCN(CCO2)CCSCCSCC1", "note": "[cryptand 6, 5,6-Benzo-4,7-dioxa-13,16,21,24-tetrathia-1,10-diazabicyclo[8.8.8]hexacos-5-ene]", "values": [{"measurement": "Oxidative potential more positive than hemoglobin (Fe^2+/3+)", "setting": "cryptand with Eu(II)", "result": 35, "unit": "mV"}, {"measurement": "Oxidative potential more positive than the Eu aqua ion", "setting": "cryptand with Eu(II)", "result": 666, "unit": "mV"}, {"measurement": "Increase in oxidative stability of Eu(II) compared to cryptand 3", "result": 173, "unit": "mV"}]}, {"compound": "hemoglobin: Human hemoglobin from RayBiotech Inc.; Fe(II) oxidation used as biological comparison [reference compound]", "values": [{"measurement": "Anodic peak potentials (Epa) with respect to ferrocene/ferrocenium (Fc/Fc+)", "result": "−0.070 ± 0.003 V vs, Fc/Fc^+"}]}, {"compound": "O=[N+]([O-])[O-].O=[N+]([O-])[O-].O=[N+]([O-])[O-].[Eu+3]", "note": "[Eu(NO3)3, reference compound]", "values": [{"measurement": "Anodic peak potentials (Epa) with respect to ferrocene/ferrocenium (Fc/Fc+)", "result": "−0.701 ± 0.030 V vs, Fc/Fc^+"}]}, {"compound": "Fc1ccc2c(c1)OCCN1CCOCCOCCN(CCOCCOCC1)CCO2", "note": "[4-Eu]", "values": [{"measurement": "Oxidative stability compared to hemoglobin (in words)", "setting": "Fe(II) in hemoglobin, p=0.64, p=0.45", "result": "statistically identical; also recorded: not different"}, {"measurement": "Anodic peak potentials (Epa) with respect to ferrocene/ferrocenium (Fc/Fc+)", "result": "−0.079 ± 0.007 V vs, Fc/Fc^+"}]}, {"compound": "Fc1ccc2c(c1)OCCN1CCOCCOCCN(CCOCCOCC1)CCO2", "note": "[cryptand 4, 5,6-(4-Fluorobenzo)-4,7,13,16,21,24-hexaoxa-1,10-diazabicyclo[8.8.8]hexacos-5-ene]", "values": [{"measurement": "Increase in oxidative stability of Eu(II) compared to cryptand 3", "result": "133 mV and 129 mV"}]}, {"compound": "c1ccc2c(c1)OCCN1CCSCCSCCN(CCO2)CCSCCSCC1", "note": "[6-Eu]", "values": [{"measurement": "Anodic peak potentials (Epa) with respect to ferrocene/ferrocenium (Fc/Fc+)", "result": "−0.035 ± 0.010 V vs, Fc/Fc^+"}]}]}
